Results on 7 compounds are retold here after patent EP1925314A1, “Pharmaceutical composition with synergistic anticonvulsant effect” (SCHWARZ PHARMA AG, priority 2006, dated 2008).

In data set [1] the test system is 6 Hz-induced seizures. In words: 6 Hz seizure test in mice, with isobolographic analysis of drug combinations. The note with it: for anticonvulsant effects against 6 Hz seizure: i.p., mice.
Data set [2] concerns epileptic seizures. In words: ED50 of the individual compounds, seizure model not given (various models of the rat and the mouse). The class given is in vivo. The note with it: ip. The procedure: The skilled person may determine the ED50 values by methods known in the art. It is preferred that the ED50 values are determined by preclinical or/and clinical trials. Published ED50 values may also be used. […] Tables 5 and 6 disclose specific ED50 values obtained in various models of the rat and the mouse. A person skilled in the art knows that in a particular model, among different species, ED50 values show a variation by a factor of up to 5 or even larger.

Data set [3] concerns cobalt-homocysteine-induced status epilepticus. The note with it: Bialer et al., 2001, 2002; cited from earlier work.
For data set [4], the system named is refractory self-sustaining status epilepticus. The note with it: in vivo; cited from earlier work.
The test system of data set [5] is drug metabolizing enzymes. In words: Inhibition, induction and metabolism by drug metabolizing enzymes. The note with it: a large variety of enzymes.
Data set [6] relates to lithium-pilocarpine-induced status epilepticus. The note with it: Bialer et al., 2001, 2002; cited from earlier work.
Data set [7] has as its system mouse cortical neurons. The note with it: mouse cortical neurons (Bialer et al., 2002); cited from earlier work.
In data set [8] the test system is pattern of neuronal activation. The note with it: Duncan and Kohn (2004); cited from earlier work.
The subject of data set [9] is 6 Hz psychomotor seizures. The note with it: determined in the anticonvulsant drug screening program of NINDS; cited from earlier work.
Data set [10] can be described thus: Clinical population pharmacokinetic analysis.
Data set [11] has as its system 6 Hz-induced seizures. The note with it: literature observation (Gower et al., 1993; Klitgaard et al., 1998); cited from earlier work.
The mark [12] stands for this setting: approximate value, model not stated, read-out: ED50.

Usually ED50 stands for the dose that gives a 50% effect, or the effect in half of the subjects.

The structures appear in SMILES notation. Where two headings read alike, the source gives them in different places.

On to `NC(=O)N1c2ccccc2C=Cc2ccccc21` [CBZ, carbamazepine], for which the “anticonvulsant effects against 6 Hz seizure” value (“anticonvulsant effects” below) in data set [1] (drugs administered alone) is listed as “dose-dependent anticonvulsant effects”. The ED50 in data set [2] (setting [12]) is roughly 50 mg/kg.

As for `NCC1(CC(=O)O)CCCCC1` [GBP, gabapentin], the “anticonvulsant effects” value in data set [1] (drugs administered alone) was “dose-dependent anticonvulsant effects”. Moreover, the ED50 in data set [2] is roughly 220 mg/kg.

As for `COC[C@@H](NC(C)=O)C(=O)NCc1ccccc1` [LCM, R-2-acetamido-N-benzyl-3-methoxypropionamide], the 50% effective dose (ED50) is 10.1 mg/kg in data set [1] (Mus musculus, ip, 0.5 h); roughly 10 mg/kg in data set [2]; 9.9 mg/kg in data set [9]. Besides, the “anticonvulsant effects” value in [1] (drugs administered alone) is recorded as “dose-dependent anticonvulsant effects”. In data set [1] (drugs administered alone, lowest ED50), the “potency compared to the other tested AEDs” value is “highest potency”. Further, in [3], the “efficacy against cobalt-homocysteine-induced status epilepticus” value is “effective”. Further, the “activity against refractory self-sustaining status epilepticus” value in data set [4] is reported as “active”. Moreover, the “inhibition or induction of drug metabolizing enzymes” value in data set [5] was “does not inhibit or induce”. For the same compound, the “efficacy against lithium-pilocarpine-induced status epilepticus” value in [6] was “effective”. Further, in data set [7], the GABA currents entry is “increased”. For the same compound, the glutamate transmission entry in data set [7] is reported as “inhibited glutamate transmission indirectly”. Besides, the “specific pattern of neuronal activation” value in data set [8] is “attenuated”. For the same compound, the “effect of LCM on plasma levels of AEDs or vice versa” value in [10] is reported as “no evidence for any effect”.

On to `CC[C@@H](C(N)=O)N1CCCC1=O` [LEV, levetiracetam], for which, in [1] (drugs administered alone), the “anticonvulsant effects” value is listed as “dose-dependent anticonvulsant effects”. Moreover, in data set [11], the “protection in the 6Hz test” value is given as “complete protection”. This compound showed an ED50 in data set [2] of roughly 20 mg/kg.

Regarding `Nc1nnc(-c2cccc(Cl)c2Cl)c(N)n1` [LTG, lamotrigine], the “anticonvulsant effects” value in data set [1] (drugs administered alone) was “dose-dependent anticonvulsant effects”. In addition, in [2], the ED50 is roughly 85 mg/kg.

On to `O=C1NC(=O)C(c2ccccc2)(c2ccccc2)N1` [PHT, phenytoin], for which, in [1] (drugs administered alone), the “anticonvulsant effects” value is recorded as “dose-dependent anticonvulsant effects”.

For the compound `CC1(C)O[C@@H]2[C@@H](CO[C@@]3(COS(N)(=O)=O)OC(C)(C)O[C@@H]23)O1` [TPM, topiramate], the “anticonvulsant effects” value in data set [1] (drugs administered alone) is reported as “dose-dependent anticonvulsant effects”. In addition, the ED50 in [2] (setting [12]) is roughly 300 mg/kg.
